Measured values from patent US4148896A, “Antidepressant combination” (E. I. Du Pont de Nemours and Company, priority 1978, dated 1979).
Read-outs that look alike come from different tables or passages of the source.

What was measured:
[1] = target: T1, mouse brain MAO (Mus musculus, UniProt Q64133); assay: biochemical
T1 sequence (Q64133 1-526): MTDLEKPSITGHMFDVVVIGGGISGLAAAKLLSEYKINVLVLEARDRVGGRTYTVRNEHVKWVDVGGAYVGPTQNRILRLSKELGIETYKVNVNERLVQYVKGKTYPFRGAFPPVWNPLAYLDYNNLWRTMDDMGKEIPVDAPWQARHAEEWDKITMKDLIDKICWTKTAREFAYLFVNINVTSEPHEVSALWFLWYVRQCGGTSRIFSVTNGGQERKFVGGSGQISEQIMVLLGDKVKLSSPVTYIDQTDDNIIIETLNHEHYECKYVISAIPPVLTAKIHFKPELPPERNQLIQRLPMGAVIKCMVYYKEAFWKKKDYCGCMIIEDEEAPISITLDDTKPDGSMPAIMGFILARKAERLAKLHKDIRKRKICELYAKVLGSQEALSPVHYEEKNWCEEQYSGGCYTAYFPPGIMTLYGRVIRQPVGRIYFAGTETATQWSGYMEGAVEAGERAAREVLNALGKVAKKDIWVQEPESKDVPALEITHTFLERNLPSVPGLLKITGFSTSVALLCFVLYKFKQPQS

[2] = target: T1, mouse brain MAO; settings: substrate 5 HT
[3] = test system: tetrabenazine-induced sedation; assay: Mouse antidepressant (antitetrabenazine) test: prevention of tetrabenazine-induced ptosis and loss of exploratory activity; settings: for ED50: Mus musculus, po; for No. of Mice Blocked, EXPLORATORY ACTIVITY / No. of Mice Blocked, PTOSIS: 1 h after amantadine
[4] = test system: mice; settings: for NUMBER OF MICE DEAD: N=10; for Effect of amantadine on molindone toxicity (mortality): mice, oral
[5] = 1 mg/kg oral (free base), 1 h, N=10
[6] = 3 mg/kg oral (free base), 1 h, N=10
[7] = 9 mg/kg oral (free base), 1 h, N=10
[8] = 20 mg/kg oral (free base), 0.5 h, N=20
[9] = 20 mg/kg oral (free base), 1 h, N=20
[10] = 20 mg/kg oral (free base), 2 h, N=20
[11] = 20 mg/kg oral (free base), 4 h, N=20
[12] = 27 mg/kg oral (free base), 1 h, N=10
[13] = 81 mg/kg oral (free base), 1 h, N=10
[14] = amantadine 2 mg/kg oral alone, N=20
[15] = amantadine 6 mg/kg oral alone, N=20
[16] = amantadine 18 mg/kg oral alone, N=20
[17] = amantadine 54 mg/kg oral alone, N=20
[18] = amantadine alone, oral, 1 h, free base basis, N=20 (Table 2)

## NNCCc1ccccc1 [PHENELZINE . SO4]
[1]
  IC50: 4 µM
[2]; final conc. 10^-4 m/l
  % INHIBITION: 88%
[2]; final conc. 10^-5 m/l
  % INHIBITION: 81%
[2]; final conc. 10^-6 m/l
  % INHIBITION: 3%

## NC12CC3CC(CC(C3)C1)C2 [Amantadine, 1-adamantanamine]
[3]; [5]
  NUMBER OF MICE BLOCKED, EXPLORATORY ACTIVITY: 0
  NUMBER OF MICE BLOCKED, PTOSIS: 1
[3]; [6]
  NUMBER OF MICE BLOCKED, EXPLORATORY ACTIVITY: 0
  NUMBER OF MICE BLOCKED, PTOSIS: 1
[3]; [7]
  NUMBER OF MICE BLOCKED, EXPLORATORY ACTIVITY: 4
  NUMBER OF MICE BLOCKED, PTOSIS: 5
[3]; [8]
  NUMBER OF MICE BLOCKED, EXPLORATORY ACTIVITY: 1
  NUMBER OF MICE BLOCKED, PTOSIS: 4
[3]; [9]
  NUMBER OF MICE BLOCKED, EXPLORATORY ACTIVITY: 8
  NUMBER OF MICE BLOCKED, PTOSIS: 13
[3]; [10]
  NUMBER OF MICE BLOCKED, EXPLORATORY ACTIVITY: 6
  NUMBER OF MICE BLOCKED, PTOSIS: 11
[3]; [11]
  NUMBER OF MICE BLOCKED, EXPLORATORY ACTIVITY: 0
  NUMBER OF MICE BLOCKED, PTOSIS: 2
[3]; [12]
  NUMBER OF MICE BLOCKED, EXPLORATORY ACTIVITY: 4
  NUMBER OF MICE BLOCKED, PTOSIS: 7
[3]; [13]
  NUMBER OF MICE BLOCKED, EXPLORATORY ACTIVITY: 8
  NUMBER OF MICE BLOCKED, PTOSIS: 10
[3]; 1 h, read-out: ED50, E[…], oral, free base basis, 1 h after drug (Table 1)
  ED50: 24 mg/kg
[3]; 1 h, read-out: ED50, PTOSIS, oral, free base basis, 1 h after drug (Table 1)
  ED50: 9.6 mg/kg
[3]; [14]
  No. of Mice Blocked, EXPLORATORY ACTIVITY: 0
  No. of Mice Blocked, PTOSIS: 2
[3]; [15]
  No. of Mice Blocked, EXPLORATORY ACTIVITY: 2
  No. of Mice Blocked, PTOSIS: 4
[3]; [16]
  No. of Mice Blocked, EXPLORATORY ACTIVITY: 12
  No. of Mice Blocked, PTOSIS: 17
[3]; [17]
  No. of Mice Blocked, EXPLORATORY ACTIVITY: 16
  No. of Mice Blocked, PTOSIS: 19
[3]; [18]
  ED50, EXPLORATORY ACTIVITY, Amantadine: 16.6 mg/kg
  ED50, PTOSIS, Amantadine: 9.4 mg/kg
[3]; oral, free base basis, 1 h after drug (Table 1), 60 min
  ED50, PTOSIS: 9.4 mg/kg
[4]; amantadine 267 mg/kg oral alone, 0.5 h
  NUMBER OF MICE DEAD: 0
[4]; amantadine 267 mg/kg oral alone, 1 h
  NUMBER OF MICE DEAD: 0
[4]; amantadine 267 mg/kg oral alone, 2 h
  NUMBER OF MICE DEAD: 0
[4]; amantadine 267 mg/kg oral alone, 4 h
  NUMBER OF MICE DEAD: 0
[4]; amantadine 267 mg/kg oral alone, 24 h
  NUMBER OF MICE DEAD: 0
[4]; amantadine 267 mg/kg oral alone, 336 h
  NUMBER OF MICE DEAD: 0
[4]; amantadine 400 mg/kg oral alone, 0.5 h
  NUMBER OF MICE DEAD: 1
[4]; amantadine 400 mg/kg oral alone, 1 h
  NUMBER OF MICE DEAD: 1
[4]; amantadine 400 mg/kg oral alone, 2 h
  NUMBER OF MICE DEAD: 1
[4]; amantadine 400 mg/kg oral alone, 4 h
  NUMBER OF MICE DEAD: 1
[4]; amantadine 400 mg/kg oral alone, 24 h
  NUMBER OF MICE DEAD: 1
[4]; amantadine 400 mg/kg oral alone, 336 h
  NUMBER OF MICE DEAD: 1
[4]; amantadine 600 mg/kg oral alone, 0.5 h
  NUMBER OF MICE DEAD: 4
[4]; amantadine 600 mg/kg oral alone, 1 h
  NUMBER OF MICE DEAD: 4
[4]; amantadine 600 mg/kg oral alone, 2 h
  NUMBER OF MICE DEAD: 4
[4]; amantadine 600 mg/kg oral alone, 4 h
  NUMBER OF MICE DEAD: 4
[4]; amantadine 600 mg/kg oral alone, 24 h
  NUMBER OF MICE DEAD: 5
[4]; amantadine 600 mg/kg oral alone, 336 h
  NUMBER OF MICE DEAD: 5
[4]; amantadine 900 mg/kg oral alone, 0.5 h
  NUMBER OF MICE DEAD: 8
[4]; amantadine 900 mg/kg oral alone, 1 h
  NUMBER OF MICE DEAD: 8
[4]; amantadine 900 mg/kg oral alone, 2 h
  NUMBER OF MICE DEAD: 8
[4]; amantadine 900 mg/kg oral alone, 4 h
  NUMBER OF MICE DEAD: 8
[4]; amantadine 900 mg/kg oral alone, 24 h
  NUMBER OF MICE DEAD: 8
[4]; amantadine 900 mg/kg oral alone, 336 h
  NUMBER OF MICE DEAD: 8
[4]; amantadine 1350 mg/kg oral alone, 0.5 h
  NUMBER OF MICE DEAD: 10
[4]; amantadine 1350 mg/kg oral alone, 1 h
  NUMBER OF MICE DEAD: 10
[4]; amantadine 1350 mg/kg oral alone, 2 h
  NUMBER OF MICE DEAD: 10
[4]; amantadine 1350 mg/kg oral alone, 4 h
  NUMBER OF MICE DEAD: 10
[4]; amantadine 1350 mg/kg oral alone, 24 h
  NUMBER OF MICE DEAD: 10
[4]; amantadine 1350 mg/kg oral alone, 336 h
  NUMBER OF MICE DEAD: 10
[4]
  Effect of amantadine on molindone toxicity (mortality): decreases the toxicity of molindone
[4]; listed as amantadine hydrochloride
  Effect of amantadine on molindone toxicity (mortality): reduces molindone hydrochloride lethal toxicity
